Test results: patent US11026972B2, “Methods for generating macrophages with enhanced cancer phagocytosis” (Georgia State University Research Foundation, Inc., priority 2016, dated 2021)

Tests used:
Type in all cases: cell-based, mouse
SIRPα = SIRPα immunoprecipitation and WB detection of SIRPα ITIM phosphorylation and SHP-1 association; details: PMA treatment
Description: FIGS. 4A-4E include data related to our experiments on macrophage phagocytic plasticity. FIG. 4A is a panel of illustrative line graphs showing that IL-10 inhibits macrophage phagocytosis toward “self.” PEMs were treated with LPS and activating cytokines along with various concentrations of IL-10 before testing their ability to phagocytose RBCs. FIG. 4B illustrates the phagocytic plasticity of WT red pulp macrophages. […] Treatments of cultured macrophages with LPS and IL-17 re-elicited their phagocytosis toward RBCs. […] Error bars are ±SEM. ***P<0.001 vs. freshly isolated splenic macrophages. FIG. 4D includes microscopic images of RBC phagocytosis by LPS- and IL-17-treated splenic macrophages. […] WT PEMs treated with LPS or IL-17 were further treated with Cd47^+ RBCs or Cd47-AP (10 min, 37° C.) followed by cell lysis, SIRPα immunoprecipitation, and WB detection of SIRPα phosphorylation (SIRPα^pY) and SHP-1 association. Data presented in each panel represent at least three independent experiments with n≥4, if applicable.
FIGS. 5A-5H include data related to our experiments on the role of Syk in phagocytic activation. […] PEMs were treated with LPS and cytokines in the presence of various inhibitors. After washing, inhibitor-free macrophages were tested for phagocytosis toward RBCs. […] PEMs treated with LPS and activating cytokines, or together with IL-10, were tested for total Syk and phosphorylated Syk (Syk^pY, specific at Y519/520). FIG. 5D describes PMA-induced macrophages phagocytosis toward RBCs. WT and SIRPα^−/− PEMs were treated with PMA (37° C., 30 min) before testing phagocytosis toward RBCs. FIG. 5E is a schematic depiction of PKC-Syk-mediated macrophage phagocytic activation toward self. […] Left: Inhibition of Syk by piceatannol and R406 prevented PMA-induced phagocytic activation. […] Error bars are ±SEM. ***P<0.001 vs. the respective controls. […] LPS-treated WT PEMs were further briefly treated with pervanadate before testing for phagocytosis toward RBCs. Error bars are ±SEM. ***P<0.001 vs. the respective controls. […]

PEMs [1] = experiment: Cell signaling inhibitors on LPS/cytokine- or PMA-induced PEM phagocytic activation toward RBCs; details: PMA treatment
Description: FIGS. 5A-5H include data related to our experiments on the role of Syk in phagocytic activation. […] PEMs were treated with LPS and cytokines in the presence of various inhibitors. After washing, inhibitor-free macrophages were tested for phagocytosis toward RBCs. […] PEMs treated with LPS and activating cytokines, or together with IL-10, were tested for total Syk and phosphorylated Syk (Syk^pY, specific at Y519/520). FIG. 5D describes PMA-induced macrophages phagocytosis toward RBCs. WT and SIRPα^−/− PEMs were treated with PMA (37° C., 30 min) before testing phagocytosis toward RBCs. FIG. 5E is a schematic depiction of PKC-Syk-mediated macrophage phagocytic activation toward self. […] Left: Inhibition of Syk by piceatannol and R406 prevented PMA-induced phagocytic activation. […] Error bars are ±SEM. ***P<0.001 vs. the respective controls. […] LPS-treated WT PEMs were further briefly treated with pervanadate before testing for phagocytosis toward RBCs. Error bars are ±SEM. ***P<0.001 vs. the respective controls. […] Data presented in each panel represent at least three independent experiments with n≥4, if applicable.
(§1) Ex vivo macrophage phagocytosis: Mouse spleens were harvested and minced in cold HBSS followed by passing through nylon meshes. The spleen cells in suspensions were collected by centrifugation followed by washing. After lysis of RBC, splenocytes were plated in cell culture dishes in DMEM with 10% FBS and cultured for 2 h followed by removal of non-adherent cells. The adherent cells, ˜70% being macrophages as determined by anti-F4/80 staining, were tested for phagocytosis. For phagocytosis of RBC or other tissue cells, targeted cells were labeled with CFSE prior to addition into the macrophage-containing wells. Macrophages and target cells, at a ratio of 1:5-10 for RBC or 1:1-2 for other cells, were co-incubated for 30 min at 37° C. followed by gently washing. Macrophage phagocytosis of target cells was then analyzed by fluorescence microscopy and/or by FACS. […] Alternatively, the freshly isolated splenocytes in suspension were incubated with CFSE-labeled RBC and other phagocytic targets for 30 min at 37° C. Macrophage phagocytosis was then determined by FACS after labeling macrophages with anti-F4/80. To test phagocytosis of apoptotic cells, B16 cells were irradiated by UV for 150 seconds at 50 J/m^2 strength. Apoptosis was analyzed at 2, 4, 6, 8 and 18 h post UV irradiation by labeling of the cells with anti-phosphatidylserine (PS) antibody (data not shown) or FITC-conjugated annexin V (data not shown). Cells that were confirmed to be apoptotic were trypsinized, labeled with CFSE, and then co-incubated with macrophages for 30 min at 37° C. After gentle washing, phagocytosis was analyzed by fluorescence microscopy and/or FACS. To test phagocytosis of bacteria and the fungal product zymosan, AlexaFluor-conjugated E.coli strain […] (2 μl suspension, ˜2 μg) or zymosan bioparticles (1 μl suspension, ˜2 μg) (both from Invitrogen) were incubated with macrophages for 30 min followed by washing and analyses. Similar procedures were performed to test phagocytosis of macrophages from various sources. To obtain peritoneal macrophages, peritonea of mice were lavaged by sterile PBS followed by centrifugation to collect cells. Cells suspended in DMEM with 10% FBS were then plated in cell culture dishes and incubated for 2 h at 37° C. followed by removal of non-adherent cells. To produce bone marrow-derived macrophages, freshly isolated bone marrow cells were culture in macrophage colony-stimulating factor (MCSF, ˜10 ng/ml)-containing MEM with 10% FBS for five-six days and macrophage differentiation was confirmed by anti-F4/80 staining.

[2] = tested on: cell surface LRP1 and CRT on PEMs; experiment: Macrophage cell surface CRT and LRP1 by FACS; details: after PMA treatment
Description: FIGS. 6A-6D include data related to our investigation of possible phagocytic receptors on macrophages for phagocytosing healthy self-cells. […] PEM (unstimulated) phagocytosis toward apoptotic B16 cells was tested in the presence of same antibodies and RAP as in A. Error bars are ±SEM. ***P<0.001 vs. phagocytosis in the presence of control IgG. […] PEMs, with or without (ctl.) treatment with LPS, IL-17, IL-6, or PMA, were labeled for cell surface LRP1 and CRT followed by FACS. Increased and decreased expressions were marked by arrows. […] Activated PEM phagocytosis toward RBCs was tested in the presence of antibodies against SR-A, Fc receptor Cd16/32 (10 μg/mL of each), inhibitors against SR-B (BLT1, 5 μM), dectin (laminarin, 100 μg/mL), complement (heparin, 40 U/mL), and antibody against Cd11b (10 μg/mL). Error bars are ±SEM. ***P<0.001 vs. the respective control without inhibition. Data presented in each panel represent at least three independent experiments with n≥4, if applicable.

[3] = tested on: splenic macrophages, PEMs and BMDMs; experiment: Ex vivo macrophage phagocytosis toward RBCs and other self-cells after activation
Method in brief: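 Mouse splenic or peritoneal macrophages (2 h adherent selection) or BMDMs (M-CSF ~10 ng/ml, 5-6 days) were co-incubated 30 min at 37 °C with CFSE-labelled RBCs (1:5-10) or other cells (1:1-2). Uptake was scored by fluorescence microscopy and/or FACS with anti-F4/80 or anti-CD11b macrophage labelling.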

PEMs [4] = experiment: Activated PEM phagocytosis toward RBCs in the presence of antibodies/inhibitors against phagocytic receptors; details: anti-CRT 10 μg/mL each; anti-LRP1 20 μg/mL; RAP 20 μg/mL
Description: (§2) FIGS. 6A-6D include data related to our investigation of possible phagocytic receptors on macrophages for phagocytosing healthy self-cells. […] PEMs, with or without (ctl.) treatment with LPS, IL-17, IL-6, or PMA, were labeled for cell surface LRP1 and CRT followed by FACS. […] Activated PEM phagocytosis toward RBCs was tested in the presence of antibodies against SR-A, Fc receptor Cd16/32 (10 μg/mL of each), inhibitors against SR-B (BLT1, 5 μM), dectin (laminarin, 100 μg/mL), complement (heparin, 40 U/mL), and antibody against Cd11b (10 μg/mL). […] Data presented in each panel represent at least three independent experiments with n≥4, if applicable.
as §1, with “To obtain peritoneal macrophages, peritonea of mice were lavaged by sterile PBS followed by centrifugation to collect cells. Cells suspended in DMEM with 10% FBS were then plated in cell culture dishes and incubated for 2 h at 37° C. followed by removal of non-adherent cells. To produce bone marrow-derived macrophages, freshly isolated bone marrow cells were culture in macrophage colony-stimulating factor (MCSF, ˜10 ng/ml)-containing MEM with 10% FBS for five-six days and macrophage differentiation was confirmed by anti-F4/80 staining.” left out

PEMs [5] = experiment: PEM (unstimulated) phagocytosis toward apoptotic B16 cells; details: same antibodies and RAP as for RBCs
Description: as §2
Ex vivo macrophage phagocytosis: Mouse spleens were harvested and minced in cold HBSS followed by passing through nylon meshes. […] The adherent cells, ˜70% being macrophages as determined by anti-F4/80 staining, were tested for phagocytosis. […] Macrophage phagocytosis of target cells was then analyzed by fluorescence microscopy and/or by FACS. […] Macrophage phagocytosis was then determined by FACS after labeling macrophages with anti-F4/80. […] Apoptosis was analyzed at 2, 4, 6, 8 and 18 h post UV irradiation by labeling of the cells with anti-phosphatidylserine (PS) antibody (data not shown) or FITC-conjugated annexin V (data not shown). […] After gentle washing, phagocytosis was analyzed by fluorescence microscopy and/or FACS. […]

LPS/cytokine-induced PEM phagocytosis toward RBCs (PEMs [4]) | Compound | SIRPα expression, SIRPα ITIM phosphorylation and SHP-1 association (SIRPα) | rescue of Syk inhibition-repressed PEM phagocytic activation by LPS (PEMs [1]) | reduction of CRT and LRP1 expression on PEMs [2] | time to elicitation of phagocytosis [3] | phagocytic target discrimination ([3]; PMA-treated WT PEMs) | PEM phagocytosis toward RBCs ([3]; low nanomolar concentrations, 37° C., 30 min) | phagocytosis toward apoptotic cells (PEMs [5])
– | CCCCCCCCCCCCCC(=O)O[C@@H]1[C@@H](C)[C@@]2(O)[C@@H](C=C(CO)C[C@]3(O)C(=O)C(C)=C[C@@H]23)[C@@H]2C(C)(C)[C@]12OC(C)=O [PMA, phorbol 12-myristate 13-acetate] | neither reduced SIRPα expression nor affected SIRPα ITIM phosphorylation and SHP-1 association | failed to rescue | ~50% | < 30 min | aggressively phagocytosed both CD47^− and CD47^+ RBCs | instantly initiated PEM to phagocytose RBCs | –
failed to inhibit | RAP: LRP1 receptor-associated protein, which inhibits CRT-LRP1 binding | – | – | – | – | – | – | significantly inhibited
